According to a melting point compilation (Tetko et al.; mined from patent text by program, amines drawn as free bases though some values may be those of a salt):

Row | Compound | melting point [°C]
1 | COc1c(C)c(C)cc(C)c1C(O)(c1ccccc1)C(C)C (configuration not stated) | 80 to 81
2 | Cc1cc(C(=O)O)ccc1OCCNC(=O)C1Cc2ccccc2N1S(=O)(=O)c1ccc(-c2ccc(F)cc2)cc1 (configuration not stated) | 112 to 118
3 | COc1ccc(-n2nc(OC(C)C)cc2-c2ccc(OCCNC(N)=O)cc2)cc1 | 139 to 140
4 | CCCCOc1c(CNC(=O)OC(C)(C)C)n(CC(C)(C)C)c(=O)c2ccc(/C=C/C(N)=O)cc12 | 121 to 122
5 | CN1c2cc(Cl)ccc2-c2nc3ccccc3c3cc(OS(=O)(=O)C(F)(F)F)cc1c23 | 239 to 241
6 | CSC(=N)N(C#N)C(c1ccccn1)c1ccccc1C (configuration not stated) | 162 to 164
7 | FC(F)(F)c1ccc(C=Cc2nc(CNc3ccc(OCCCn4ccnn4)cc3)co2)cc1 | 134 to 136
8 | [N-]=[N+]=Nc1ccc(C(=O)OCCOC(=O)C[C@@H](C(=O)O)n2c3ccccc3c3ccccc32)cc1 | 55
9 | O=C(O)c1cnn(-c2ccc(Cl)cc2)c1C1CC1 | 186 to 187
10 | CCCNC(=O)c1ccc2c(c1)C(=O)NC(C(Cl)(Cl)Cl)O2 (configuration not stated) | 228 to 230
11 | NC(=O)CCn1ccn(C2CCc3ccccc3C2)c1=S (configuration not stated) | 180 to 181
12 | NC(=O)c1sc(-n2cnc3cnccc32)cc1OCc1ccccc1C(F)(F)F | 226 to 227
13 | C#CCN(Cc1cc2c(=O)[nH]c(COC(C)=O)nc2cc1Cl)c1ccc(C(=O)OC(C)(C)C)cc1 | 219 to 220
14 | CCOC(=O)c1ccc(NC(=O)Oc2ccccc2)cc1 | 156 to 162
15 | CC(=O)Oc1c(C)cc(C(=O)c2ccc(C(=O)c3cc(C)c(OC(C)=O)c(C)c3)cc2)cc1C | 255 to 256
16 | COC(=O)COc1cc2c(c(Cl)c1C)C(=O)C1(CCCC1)C2=O | 152 to 154
17 | CC(C)(C)OC(=O)NCCn1cnc2c(N)nc3ccccc3c21 | 215
18 | CCC(=O)OC(CC)c1nc2c(C(F)(F)F)cccc2c(O)c1C(=O)Nc1nccs1 (configuration not stated) | 187
19 | O=C(Nc1ccc(Cl)cn1)c1cc(Cl)ccc1NCC1CCN(C2CCSCC2)CC1 | 200 to 203

Row | Compound | melting point [°C]
20 | CCOC(=O)C1=C(C)NC(C)=C(C(=O)OCC)C1c1ccccc1S(C)=O (configuration not stated) | 232 to 233
21 | NS(=O)(=O)c1cc2[nH]c(C(F)F)nc2cc1Cl | 233 to 235
22 | CC(C)c1nn(-c2ccc(C(F)(F)F)cc2)cc1COc1cccc(CC(=O)O)c1 | 92 to 93
23 | CN(C)CCCCCCc1nn(CC(N)=O)c(-c2ccccc2)c1-c1ccccc1 | 60 to 63
24 | CC(C(=O)N(C)C)n1nc(-c2ccccc2)c2c1CCCC2 (configuration not stated) | 101 to 103
25 | COc1ccc(Cl)c(C(=O)NCCc2ccc(S(=O)(=O)NC(=O)c3ccc(C(=O)NCCO)nc3)cc2)c1 | 135 to 137
26 | O=C1N(Cc2ccc(C(F)(F)F)o2)c2ccc(F)cc2C12COc1cc3c(cc12)OCO3 (configuration not stated) | 139 to 141
27 | COc1ccc2[nH]c(S(=O)(=O)c3ccc(=O)[nH]n3)cc2c1 | > 250
28 | O=CNC(C(=O)O)c1ccccc1 (configuration not stated) | 170 to 175
29 | CON1C(C)(C)CC(OC(=O)c2cccc(C(=O)OC3CC(C)(C)N(OC)C(C)(C)C3)c2)CC1(C)C | 99 to 101
30 | O=Cc1c2ccccc2c(CO)c2ccccc12 | 182 to 184
31 | O=C(Nc1cccc(-n2ccnc2)c1)c1ccn(-c2ccccc2)c1 | 100 to 103
32 | CCCCCOC(=O)C(N)C=CCP(=O)(O)O (configuration not stated) | 160 to 161
33 | O=C(O)CN1C(=O)COc2cc(F)ccc21 | 183 to 184
34 | O=c1c(Cl)c(-c2ccc3c(ccn3[C@H]3CC[C@H](O)CC3)c2)ccn1CC1CC1 | 209
35 | CC1Cc2cc(C(O)C(C)N3CCC(n4c(=O)[nH]c5ccccc54)CC3)ccc2S1 (configuration not stated) | 220 to 222
36 | COc1ccc(-n2c(=O)[nH]c3c(C(N)=O)nc(-c4cccc(O)c4)nc32)c(F)c1 | > 260
37 | COCCNC(=O)c1cccc(-c2cccc3cc(Cc4cc(F)ccc4F)sc23)c1 | 92 to 94
